From US11834698B2, “Process for determining enzyme activity in a cell by activity-based reporter gene technology (ABRGT)” (INDIAN INSTITUTE OF SCIENCE EDUCATION AND RESEARCH, priority 2018, dated 2023)
Peptide text beside a SMILES is read from it. * marks the point of attachment. Cbz = O=C(OCc1ccccc1)*; CH2F = FC*

Biological target: T1, caspase-3 GFPspark (Homo sapiens, UniProt P42574)
T1 sequence (P42574 29-175 limits assumed): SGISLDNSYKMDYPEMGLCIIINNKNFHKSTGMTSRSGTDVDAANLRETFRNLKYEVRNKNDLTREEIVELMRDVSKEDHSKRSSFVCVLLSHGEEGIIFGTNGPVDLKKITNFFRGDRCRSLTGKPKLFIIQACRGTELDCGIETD
T1 sequence (P42574 176-277 limits assumed): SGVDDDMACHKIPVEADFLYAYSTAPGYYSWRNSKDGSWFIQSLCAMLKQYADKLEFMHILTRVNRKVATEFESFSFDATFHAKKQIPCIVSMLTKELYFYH
Assay: AbRGT FRET imaging / acceptor photobleaching, caspase-3 GFPspark in MCF-7 cells
Type: cell-based
Parameters: host or cells: MCF-7, HeLa, HEK-293
Details: for effect of inhibitor on FRET signal: STS 4 h
Protocol: FIG. 2 depicts (a) a schematic representation of AbRGT in determining the specific activation of caspase-3 GFPspark tagged enzyme by FRET effect utilizing Rh-VAD-FMK (probe 1). (b) The fluorescence signal was collected in GFP, FRET and Rhodamine (Rh) channels. MCF-7 cells transfected with caspase-3 GFPspark treated with (i) 1 μM STS for 4 h or (ii) 1 μg/ml TRAIL for 5 h and then labelled with probe 1. (iii) Un-transfected MCF-7 cells were treated with 1 μM STS for 4 h and then labelled with the probe 1. MCF-7 cells transfected with enhanced green fluorescent protein (EGFP) plasmid treated (iv) with 1 μM STS or (v) without STS for 4 h and then labelled with probe 1, scale bar, […]. (c) FRET validation between GFPspark and rhodamine fluorophore using the acceptor photobleaching method. Images for GFP and rhodamine fluorescence signals were collected in GFP and FRET channels pre- and post-bleaching of rhodamine signals. (d) Quantification of change in GFP fluorescence intensity after rhodamine photo-bleaching in both unbleached control region and rhodamine bleached region, region of interest (ROI), area under the white square. Error bar represents the s.e.m for n=15 cells (*P<0.00001). Scale bar, 10 μm. a.u., arbitrary units.
FIGS. 6A and 6B depict time dependent activation of caspase-3 GFPspark in MCF-7 cells upon STS (1 μM) induction. MCF-7 cells transfected with 2 μg of caspase-3 GFPspark plasmid and treated with 1 μM of STS for 2, 6, and 8 h. Cells were then labelled with the probe 1 for an additional 2 h. […] FRET validation between GFPspark and rhodamine fluorophore using the acceptor photobleaching method for the MCF-7 cells with STS induction for 2, 6 and 8 h. I=intensity (a.u.), arbitrary units. The calculated FRET efficiency for 2, 6 and 8 h are 38, 43, and 36% respectively.
FIGS. 7A and 7B depict applying AbRGT for specific detection of active caspase-3 GFPspark using the Rh-DEVD-FMK (probe 2). Caspase-3 GFPspark (2 μg) overexpressing MCF-7 cells were treated with 1 μM of STS for 4 h and labelled with the probe 2 (1 μM). […] The rise in GFPspark intensity after rhodamine photobleaching in the background is insignificant as compared to the ROI, i.e., 68 a.u., with a calculated FRET efficiency of 35%.
FIG. 12 depicts confocal images of MCF-7 cells in GFP, FRET and Rh channel. Caspase-3 GFPspark transfected MCF-7 cells were treated with STS for 4 h and labelled (a) with or (b) without probe 1. Cells were pre-treated with (c) Z-VAD-FMK (50 μM) and (d) Q-VD-OPh (50 μM) pan-caspase inhibitors 3 h before the probe labelling.
Plasmids and transient transfection: GFPspark tagged plasmids; caspase-3 GFPspark tag (Cat: HG10050-ACG), caspase-7 GFPspark tag (HG10049-ACG), caspase-8 GFPspark (HG10078-ACG), caspase-9 GFPspark (HG11151-ACG) and cathepsin B GFPspark (HG10483-ACG) were procured from Sino Biological. For transfection, cells were seeded in a 6-well plate at a density of 0.4 million cells/well. At 60-70% confluency, cells were transiently transfected for 24 h at 37° C. with 1 μg of the GFPspark tagged plasmid DNA construct mixed with 5 μL of Lipofectamine 2000 (Invitrogen) according to the manufacturer's instructions. 24 h post-transfection, cells were visualized under the GFP filter for GFPspark expression under fluorescence microscope at 10× magnification.
Labelling of active caspases in apoptotic cells with FABP: After 24 h of transfection, cells were treated with STS (1 μM) drug or TRAIL (1 μg/ml) for apoptotic induction and incubated for 2, 4, 6 and 8 h at 37° C. in a humidified atmosphere of 5% CO2/95% air. Cells were gently scraped off from the surface at the end of apoptotic induction and centrifuged at 3000 rpm for 5 min. The cell pellet was resuspended in 300 μL of fresh DMEM containing 1 μM of probe for probe 2 and incubated for additional 2 h at 37° C. in a humidified atmosphere of 5% CO2. Cells were again centrifuged at 3000 rpm for 5 mins, and the supernatant was decanted. […]

[1] = MCF-7, inhibitor 50 μM pre-treatment before probe 1 labelling

signal in Rh channel in presence of inhibitor [1] | effect of inhibitor on FRET signal [1] | Molecule | calculated FRET efficiency (MCF-7, STS 1 μM 2 h) [%] | rise in GFP intensity after rhodamine photobleaching in ROI (MCF-7, STS 1 μM 4 h, probe 1 μM) [a.u.] | calculated FRET efficiency (MCF-7, STS 1 μM 4 h, probe 1 μM 2 h, acceptor photobleaching) [%] | calculated FRET efficiency (MCF-7, STS 1 μM 6 h) [%] | calculated FRET efficiency (MCF-7, STS 1 μM 8 h) [%]
distinct punctate labelling was detected | abolished | CC(C)[C@H](NC(=O)c1ccc2ccccc2n1)C(=O)N[C@@H](CC(=O)O)C(=O)COc1c(F)cccc1F [Q-VD-OPh] |  |  |  |  | 
 | completely abolished | COC(=O)C[C@H](NC(=O)[C@H](C)NC(=O)[C@@H](NC(=O)OCc1ccccc1)C(C)C)C(=O)CF [Z-VAD-FMK] (Cbz-Val-Ala-Asp(OMe)-CH2F) |  |  |  |  | 
 |  | Rhodamine-VAD-fluoromethyl ketone [probe 1] | 38 | 58±3 | 35±1 | 43 | 36
